The values that follow are results of earlier work, collected in patent CN105130966A, “炔基化合物及其使用方法和用途” (Add And Open Up Scientific Co, priority 2014, dated 2015).

Data set [1] addresses PI3Kδ (Mus musculus, UniProt O35904). To be noted: ovalbumin-induced airway inflammation; FASEB, 2006, 20, 455-465.
Data set [2] concerns any protein kinase tested (试验的任何蛋白激酶). To be noted: Cell, 2006, 125, 733-747.

Sequence of PI3Kδ (O35904 whole entry): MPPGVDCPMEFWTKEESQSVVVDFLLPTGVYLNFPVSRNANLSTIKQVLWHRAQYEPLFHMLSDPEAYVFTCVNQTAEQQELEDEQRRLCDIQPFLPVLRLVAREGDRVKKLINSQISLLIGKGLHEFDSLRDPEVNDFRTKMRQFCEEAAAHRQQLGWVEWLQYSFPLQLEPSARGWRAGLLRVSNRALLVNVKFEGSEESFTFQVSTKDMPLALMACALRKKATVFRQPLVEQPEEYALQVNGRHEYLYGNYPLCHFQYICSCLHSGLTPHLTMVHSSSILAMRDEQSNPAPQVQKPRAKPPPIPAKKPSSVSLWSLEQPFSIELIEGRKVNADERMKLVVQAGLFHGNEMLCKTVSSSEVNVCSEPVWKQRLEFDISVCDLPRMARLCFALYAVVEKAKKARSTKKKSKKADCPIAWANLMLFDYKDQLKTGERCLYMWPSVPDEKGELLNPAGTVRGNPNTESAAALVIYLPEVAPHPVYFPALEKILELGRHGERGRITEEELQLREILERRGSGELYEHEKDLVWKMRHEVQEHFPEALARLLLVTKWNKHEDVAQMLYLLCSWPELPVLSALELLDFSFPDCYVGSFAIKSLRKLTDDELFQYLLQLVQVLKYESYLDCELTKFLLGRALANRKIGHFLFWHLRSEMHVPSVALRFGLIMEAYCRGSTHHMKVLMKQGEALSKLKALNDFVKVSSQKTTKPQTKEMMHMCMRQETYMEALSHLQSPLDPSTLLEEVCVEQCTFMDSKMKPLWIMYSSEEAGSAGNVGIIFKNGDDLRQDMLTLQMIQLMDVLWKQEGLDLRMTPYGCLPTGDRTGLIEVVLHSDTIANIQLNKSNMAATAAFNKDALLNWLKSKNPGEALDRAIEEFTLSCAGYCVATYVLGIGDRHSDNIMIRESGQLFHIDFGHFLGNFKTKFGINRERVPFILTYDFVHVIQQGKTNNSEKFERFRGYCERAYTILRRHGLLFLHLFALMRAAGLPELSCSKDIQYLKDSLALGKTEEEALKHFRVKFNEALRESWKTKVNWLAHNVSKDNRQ
Sequence of PI3Kδ (P26450 whole entry partner): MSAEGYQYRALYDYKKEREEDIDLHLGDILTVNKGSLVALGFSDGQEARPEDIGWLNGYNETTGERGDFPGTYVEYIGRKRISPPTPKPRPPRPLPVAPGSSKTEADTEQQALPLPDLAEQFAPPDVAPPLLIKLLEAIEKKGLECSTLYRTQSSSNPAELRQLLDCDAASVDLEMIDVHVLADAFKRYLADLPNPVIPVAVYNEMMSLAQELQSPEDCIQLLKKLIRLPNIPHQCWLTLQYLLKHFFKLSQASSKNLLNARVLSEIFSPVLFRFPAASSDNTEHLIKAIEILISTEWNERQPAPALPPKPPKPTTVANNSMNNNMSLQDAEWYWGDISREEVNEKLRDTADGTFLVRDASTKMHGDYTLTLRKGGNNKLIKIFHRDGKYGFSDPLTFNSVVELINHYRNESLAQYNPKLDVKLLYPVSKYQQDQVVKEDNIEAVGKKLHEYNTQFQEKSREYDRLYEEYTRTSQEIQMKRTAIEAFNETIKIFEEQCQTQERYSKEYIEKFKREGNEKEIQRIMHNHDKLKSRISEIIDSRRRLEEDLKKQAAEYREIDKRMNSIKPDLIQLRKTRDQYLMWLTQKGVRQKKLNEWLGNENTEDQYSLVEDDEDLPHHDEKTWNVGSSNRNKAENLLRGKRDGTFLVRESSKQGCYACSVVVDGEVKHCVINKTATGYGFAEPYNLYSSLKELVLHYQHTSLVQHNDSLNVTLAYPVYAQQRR

Take `Cc1ccccc1-n1c(Cn2cnc3c(N)ncnc32)nc2cccc(C)c2c1=O` [IC87114]: the inflammation result in data set [1] is “显著改善炎症”. Further, the activity result in data set [2] is “不显示活性”.
